For 8 molecules, GI50 and TGI results are on record in PubChem BioAssay (NCI).

Where “and” joins values, the source holds several entries; their conditions need not be identical. Equal values may be shown once.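 Method: 48-hour compound exposure of cells in 96-well plates, five concentrations, linear interpolation of endpoints. GI50: concentration for 50% inhibition of growth. TGI: total growth inhibition.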

Among the test systems are OVCAR-4 ovarian; HOP-92 NSCLC; NCI-H460 lung; UO-31 renal; UACC-62 melanoma; KM12 colon; SK-MEL-5 melanoma; HCC-2998 colon; MALME-3M melanoma.
Assay in all cases: NCI anticancer screen, dose series, 48 h

As for `C=C(C=O)C1CCC2(C(=O)O)CCC3(C)C(CCC4C5(C)CCC(O)C(C)(C)C5CCC43C)C12` (centres undefined), the GI50 was 4.83 µM in the assay with OVCAR-4 ovarian; 19.7 µM in the assay on HOP-92 NSCLC; 2.05 µM with NCI-H460 lung; 0.627 µM in the assay on UO-31 renal; 1.64 µM with UACC-62 melanoma; 1.61 µM in the assay with KM12 colon. The GI50 with SK-MEL-5 melanoma was 1.52 µM; in the assay on HCC-2998 colon, 1.93 µM; in the assay on MALME-3M melanoma it was 2.33 µM. The TGI with OVCAR-4 ovarian is 22.2 µM; in the assay on HOP-92 NSCLC, 64.6 µM; with NCI-H460 lung, 4.43 µM; in the assay with UO-31 renal, 2.16 µM; in the assay with UACC-62 melanoma, 3.57 µM; with KM12 colon, 3.39 µM. Also, the TGI with SK-MEL-5 melanoma amounted to 2.84 µM; in the assay with HCC-2998 colon, 3.36 µM; in the assay with MALME-3M melanoma, 7.99 µM.

Turning to `CCC[CH2][Sn]([CH2]CCC)([CH2]CCC)[O]C(=O)CC`, the GI50 in the assay on OVCAR-4 ovarian was 0.125 µM; in the assay on HOP-92 NSCLC, 0.137 µM; with NCI-H460 lung, 0.135 µM; in the assay with UO-31 renal, 0.15 µM; in the assay on UACC-62 melanoma, 0.178 µM; with KM12 colon, 0.135 µM. For the same molecule, the GI50 is 0.139 µM with SK-MEL-5 melanoma, 0.171 µM with HCC-2998 colon and 0.151 µM in the assay with MALME-3M melanoma. Also, the TGI in the assay on OVCAR-4 ovarian came out at 0.26 µM; in the assay with HOP-92 NSCLC, 0.429 µM; in the assay with NCI-H460 lung, 0.281 µM; with UO-31 renal, 0.314 µM; with UACC-62 melanoma it was 0.405 µM; in the assay with KM12 colon it was 0.27 µM. Further, the TGI worked out at 0.27 µM in the assay on SK-MEL-5 melanoma, 0.316 µM in the assay on HCC-2998 colon and 0.349 µM in the assay with MALME-3M melanoma.

As for `Oc1ccc(Cl)cc1Cc1cc(Cl)cc(Cl)c1O`, the GI50 is 3.48 µM in the assay on OVCAR-4 ovarian; 1.19 µM in the assay on HOP-92 NSCLC; 3.22 µM in the assay on NCI-H460 lung; 3.48 µM with UO-31 renal; 4.55 µM with UACC-62 melanoma; 4.34 µM with KM12 colon. Further, the results for the GI50 in the assay with SK-MEL-5 melanoma, in the assay on HCC-2998 colon and in the assay on MALME-3M melanoma were 1.85 µM, 6.52 µM and 3.68 µM, respectively. Also, the TGI in the assay on OVCAR-4 ovarian came to 23.3 µM; in the assay on HOP-92 NSCLC it was 6.42 µM; in the assay on NCI-H460 lung it was 13.2 µM; with UO-31 renal it was 15.2 µM; in the assay on UACC-62 melanoma it was 18.8 µM; with KM12 colon, 19.8 µM. In addition, the TGI in the assay with SK-MEL-5 melanoma worked out at 4.89 µM; in the assay on HCC-2998 colon, 18.9 µM; with MALME-3M melanoma, 18.7 µM.

On to `COCCOc1cc(F)c2c(Nc3ccc(NC(=O)Cn4cc(C(C)C)nn4)cc3)ncnc2c1`, for which the GI50 with OVCAR-4 ovarian was 19.2 µM; in the assay on HOP-92 NSCLC it was 5.99 µM; with NCI-H460 lung, 51.3 µM; with UO-31 renal it was more than 100 µM; in the assay with UACC-62 melanoma, 85.4 µM; in the assay on KM12 colon, 1.16 µM. Also, the GI50 with SK-MEL-5 melanoma was 24.3 µM; in the assay with HCC-2998 colon, more than 100 µM; in the assay with MALME-3M melanoma it was 79.6 µM. Moreover, the TGI in the assay on OVCAR-4 ovarian is more than 100 µM; in the assay with HOP-92 NSCLC, 92 µM; with NCI-H460 lung, more than 100 µM; in the assay on UO-31 renal, more than 100 µM; with UACC-62 melanoma it was more than 100 µM; with KM12 colon it was more than 100 µM. Further, the TGI in the assay with SK-MEL-5 melanoma, with HCC-2998 colon and in the assay with MALME-3M melanoma was more than 100 µM each time.

`CC(C)c1ccc(Nc2ccc3c(OCCCN4CCN(C)CC4)cccc3n2)cc1`: the GI50 with OVCAR-4 ovarian is 13.9 µM; with HOP-92 NSCLC, 10.6 µM; with NCI-H460 lung, 5.44 µM; in the assay with UO-31 renal, 12.9 µM; with UACC-62 melanoma, 2.17 µM; in the assay with KM12 colon, 11.3 µM. Moreover, the GI50 in the assay on SK-MEL-5 melanoma is 15.3 µM; with HCC-2998 colon, 1.77 µM; with MALME-3M melanoma, 3.66 µM. In addition, the TGI with OVCAR-4 ovarian was determined as 28.5 µM; in the assay on HOP-92 NSCLC, 27.4 µM; with NCI-H460 lung, 18 µM; with UO-31 renal, 27.8 µM; in the assay on UACC-62 melanoma, 4.86 µM; with KM12 colon, 25.6 µM. Moreover, the TGI in the assay on SK-MEL-5 melanoma came out at 30.2 µM; with HCC-2998 colon it was 3.35 µM; with MALME-3M melanoma, 16.6 µM.

For `CC[C@]12C=CCN3CC[C@@]4(c5ccc(OC)cc5N(C)[C@H]4[C@@](O)(C(=O)OC)[C@@H]1OC(=O)CCC[P+](c1ccccc1)(c1ccccc1)c1ccccc1)[C@@H]32`, the GI50 in the assay on OVCAR-4 ovarian is 0.317 µM and 0.322 µM; in the assay with HOP-92 NSCLC, 0.0934 µM and 0.241 µM; in the assay with NCI-H460 lung, 1.38 µM and 1.31 µM; in the assay with UO-31 renal, 8.57 µM and 13.4 µM; with UACC-62 melanoma it was 0.3 µM and 0.379 µM; in the assay on KM12 colon, 0.274 µM and 0.527 µM. Further, the GI50 in the assay on SK-MEL-5 melanoma was 0.817 µM and 1.65 µM; with HCC-2998 colon, 0.449 µM and 0.425 µM; in the assay with MALME-3M melanoma, 0.338 µM and 0.493 µM. The TGI with OVCAR-4 ovarian is 6.1 µM and 2.32 µM; in the assay on HOP-92 NSCLC it was 0.78 µM and 0.946 µM; in the assay on NCI-H460 lung, 5.82 µM and 11 µM; with UO-31 renal, 26.2 µM and 26.9 µM; with UACC-62 melanoma, 0.964 µM and 1.42 µM; with KM12 colon, 1.06 µM and 1.8 µM. Also, the TGI is 1.53 µM and 3.02 µM in the assay on SK-MEL-5 melanoma; 2.67 µM and 1.64 µM with HCC-2998 colon; 1.37 µM and 1.78 µM with MALME-3M melanoma.

With `O=S(=O)(Nc1cc(F)cc(Cl)c1)c1ccc(-c2cnc(C3CC3)o2)cc1`, the GI50 in the assay on OVCAR-4 ovarian was 5.64 µM; with HOP-92 NSCLC, 0.979 µM; in the assay on NCI-H460 lung, 0.64 µM; in the assay with UO-31 renal, 2.96 µM; in the assay on UACC-62 melanoma it was 0.458 µM; in the assay with KM12 colon it was 0.614 µM. The GI50 with SK-MEL-5 melanoma is 1.83 µM; in the assay with HCC-2998 colon, 3.71 µM; in the assay on MALME-3M melanoma, 2.53 µM. Moreover, the TGI in the assay on OVCAR-4 ovarian turned out to be 21.9 µM; in the assay with HOP-92 NSCLC, 8.45 µM; in the assay on NCI-H460 lung, 13.8 µM; in the assay on UO-31 renal, 17.6 µM; in the assay on UACC-62 melanoma, 14.5 µM; in the assay on KM12 colon it was 16.7 µM. For the same molecule, the TGI in the assay on SK-MEL-5 melanoma amounted to 11.7 µM; in the assay with HCC-2998 colon, 18.7 µM; in the assay with MALME-3M melanoma it was 28 µM.

For the molecule `CC/C(=C(/c1ccc(OCCN(C)C)cc1)c1ccc(OC(=O)CCCCC(=O)c2c(C)[nH]c(/C=C3\N=C(c4ccc[nH]4)C=C3OC)c2C)cc1)c1ccccc1`, the GI50 was 4.39 µM in the assay with OVCAR-4 ovarian; 1.12 µM in the assay on HOP-92 NSCLC; 3.99 µM in the assay on NCI-H460 lung; 2.81 µM with UO-31 renal; 4.94 µM with UACC-62 melanoma; 3.75 µM in the assay on KM12 colon. Further, the GI50 was 1.61 µM in the assay with SK-MEL-5 melanoma, 13.2 µM in the assay with HCC-2998 colon and 9.28 µM in the assay on MALME-3M melanoma. Further, the TGI with OVCAR-4 ovarian was 22.3 µM; with HOP-92 NSCLC, 6.28 µM; with NCI-H460 lung, 15.5 µM; with UO-31 renal, 21.3 µM; in the assay with UACC-62 melanoma, 17.8 µM; in the assay on KM12 colon it was 14.3 µM. The TGI was determined as 3.11 µM in the assay on SK-MEL-5 melanoma, 26.7 µM in the assay with HCC-2998 colon and 34.4 µM with MALME-3M melanoma.
